One assay addresses T1, ERR3 (Homo sapiens, UniProt P62508).
T1 sequence (P62508 1-458): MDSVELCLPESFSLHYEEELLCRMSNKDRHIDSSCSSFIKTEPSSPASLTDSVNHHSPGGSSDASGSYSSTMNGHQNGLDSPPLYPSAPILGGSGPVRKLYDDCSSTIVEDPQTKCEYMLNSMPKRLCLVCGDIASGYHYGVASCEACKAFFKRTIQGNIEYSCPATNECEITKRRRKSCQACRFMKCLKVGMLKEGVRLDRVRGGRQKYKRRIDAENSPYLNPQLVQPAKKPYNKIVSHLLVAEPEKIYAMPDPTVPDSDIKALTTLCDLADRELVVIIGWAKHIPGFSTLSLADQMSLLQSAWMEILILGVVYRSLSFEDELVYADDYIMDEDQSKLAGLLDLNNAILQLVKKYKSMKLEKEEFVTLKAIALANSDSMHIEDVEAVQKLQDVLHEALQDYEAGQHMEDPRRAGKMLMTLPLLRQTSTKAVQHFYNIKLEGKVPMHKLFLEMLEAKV
To be noted: Coward et al. (2001); cited from earlier work.

The next assay deals with T2, Gal4-ERR3 (Homo sapiens, UniProt P62508).
T2 construct: expressed in transfected cells; host or cells: COS-1
T2 sequence (P62508 229-458): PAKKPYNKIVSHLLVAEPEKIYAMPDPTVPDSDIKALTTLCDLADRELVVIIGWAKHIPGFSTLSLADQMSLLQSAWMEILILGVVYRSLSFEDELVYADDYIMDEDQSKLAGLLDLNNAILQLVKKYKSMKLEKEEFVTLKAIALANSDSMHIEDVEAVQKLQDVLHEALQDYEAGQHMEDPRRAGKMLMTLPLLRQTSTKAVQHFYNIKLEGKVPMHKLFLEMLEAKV
The experiment in a line: Transient transfection luciferase reporter assay, Gal4-ERR3 in COS-1 cells. Type of assay: cell-based. On the procedure: (§1) FIG. 6: represents the transcriptional activities of wild-type and mutant ERR3 fusion proteins in transient transfection assays, wherein (A) COS-1 cells were transfected in 24-well plates with 250 ng per well of Gal4(5×)-TATA-LUC reporter and 50 ng of wt or mutant pCMX-Gal4-ERR3 expression plasmid. […] (B) Experiments were performed as described in (A) using 250 ng per well of Gal4(3×)-TK-LUC reporter plasmid and 50 ng of wt or mutant Gal4-ERR3 expression plasmid. […] FIGS. A to C represent an average of three independent experiments. The activity of the Gal4 DBD control was set to one.
(§2) COS-1 and BHK cells were cultured in DMEM supplemented with 5% FCS, penicillin, streptomycin, and glutamine. Neuro2A cells were cultured in EMEM supplemented with 10% FCS, penicillin, streptomycin, glutamine, and non-essential amino acids. Transient transfection assays were carried out in 24-well plates (0.5×10^5 cells per well for COS-1 and Neuro2A cells, 0.25×10^5 cells per well for BHK cells) using the standard calcium phosphate coprecipitation technique as described in Greiner et al. (Greiner et al., 1996). Cells were transfected with 250 ng of Gal4(5×)-TATA-LUC, Gal4(3×)-TK-LUC, or ERE(2×)-TK-LUC reporter plasmid and 50 ng per well of pCMX-Gal4-ERR3 or pCMX-ERR3 expression plasmid. The empty plasmids pCMX-Gal4 and pCMX served as control. […]

Assay [1] deals with Gal4-ERR3 mutants (A272F, A272L, F435L, L345I-F435L-F450L). Put plainly: Transient transfection luciferase reporter assay, Gal4-ERR3 mutants in COS-1 cells. The format is cell-based, human. To be noted: 10^−6M 4-OHT. On the procedure: as §1, §2
Another assay concerns the target T3, ERR2 (Homo sapiens, UniProt O95718).
T3 sequence (O95718 1-433): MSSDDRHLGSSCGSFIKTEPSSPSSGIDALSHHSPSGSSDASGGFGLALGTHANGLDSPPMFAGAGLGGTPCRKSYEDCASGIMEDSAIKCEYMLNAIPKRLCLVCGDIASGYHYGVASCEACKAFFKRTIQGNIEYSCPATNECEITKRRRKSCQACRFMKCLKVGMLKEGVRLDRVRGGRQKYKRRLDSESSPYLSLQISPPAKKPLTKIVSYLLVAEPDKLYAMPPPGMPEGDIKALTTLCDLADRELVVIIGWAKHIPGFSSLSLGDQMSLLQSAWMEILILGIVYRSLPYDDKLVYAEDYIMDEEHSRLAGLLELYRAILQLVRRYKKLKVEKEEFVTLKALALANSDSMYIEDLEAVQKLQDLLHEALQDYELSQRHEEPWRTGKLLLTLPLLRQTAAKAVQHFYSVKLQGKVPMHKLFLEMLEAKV
To be noted: Coward et al. (2001); cited from earlier work.

4-hydroxytamoxifen [4-OHT]: at ERR3, the “affinities of binding to ERR3” value is given as “submicromolar”. The “activity of Gal4-ERR3” value on Gal4-ERR3 (10^−6M 4-OHT, Gal4(5×)-TATA-LUC reporter) was “blocked efficiently”. At Gal4-ERR3 (Gal4(3×)-TK-LUC reporter), the “repression of the constitutive activity of Gal4-ERR3 below basal levels of the TK promoter” value is recorded as “neither 4-OHT nor DES repress”. For the same substance, the “transcriptional activity of Gal4-ERR3(F435L) and Gal4-ERR3(L345I-F435L-F450L)” value in assay [1] was “antagonizes”. In addition, on ERR2, the “binding to ERR2” value is listed as “binds”.

Values taken from patent US7279325B2, “Method for identifying antagonist compounds of the estrogen-related receptor 3 (ERR3) by using the x-ray structural coordinates of the ligand binding domain” (priority 2002, dated 2007).
